Results: patent US9221827B2, “Antimicrobial compounds and methods of making and using the same” (Melinta Therapeutics, Inc., priority 2011, dated 2015)

Test system: Escherichia coli strain ATCC25922
Assay: standard microdilution assay to determine minimum inhibitory concentrations (MICs)
Assay type: cell-based
Protocol: The in vitro activity of the compounds of the present invention can be determined. Antimicrobial testing is typically performed to determine the minimum inhibitory concentration (MIC). Minimum inhibitory concentrations (MICs) are determined by the microdilution method in a final volume of 100 μl according to protocols outlined by The Clinical and Laboratory Standards Institute (CLSI). Performance standards for reference strains are assessed within the same experimental design to maintain quality control. See, for example, Clinical Laboratory Standards Institute: Methods for dilution antimicrobial susceptibility tests for bacteria that grow aerobically M7-A8. Approved Standard-Eighth Edition. Wayne, Pa.: CLSI; December 2008; and Clinical Laboratory Standards Institute: Performance Standards for Antimicrobial Susceptibility Testing M100-S20; Approved Standard-Twentieth Edition. Wayne, Pa.: CLSI; June 2010.
The compounds of the present invention were tested for antimicrobial activity. […] The compounds were run against Escherichia coli strain ATCC25922 using a standard microdilution assay to determine minimum inhibitory concentrations (MICs). […] A “N/A” means that data is unavailable. It will be recognized by one skilled in the art that the compounds can be assessed against other bacterial organisms and that the presentation of data for activity against Escherichia coli is illustrative and in no way is intended to limit the scope of the present invention. The compounds of the present invention can be assayed against a range of other microorganisms depending upon the performance activity desired to be gathered. Furthermore, the “+”, “−”, and “N/A” representation and the selection of a cutoff value of 16 micrograms/ml is also illustrative and in no way is intended to limit the scope of the present invention.

[1] = Escherichia coli strain ATCC25922, microdilution
[2] = Escherichia coli strain ATCC25922, standard microdilution assay

| Compound | E. coli ATCC25922 MIC [1] | E. coli ATCC25922 MIC [2] |
| --- | --- | --- |
| CCC(N)COC(C)c1cc(-c2cc3cn(-c4ccc([C@H](C)NCCCNC(=N)N)cc4)c(=O)nc3[nH]2)cc(C(F)(F)F)c1 (stereo partly drawn) [Compound 480] | + (a “+” indicates that the compound has an MIC value of 16 micrograms/ml or less) |  |
| C[C@H](NCCCNC(=N)N)c1ccc(-n2cc3cc(-c4cc(CCCCN)cc(SC(F)(F)F)c4)[nH]c3nc2=O)cc1 [Compound 69] | + (a “+” indicates that the compound has an MIC value of 16 micrograms/ml or less) |  |
| NCc1ccc(-n2cc3cc(-c4cc(CCC5(CN)CC5)cc(SC(F)(F)F)c4)[nH]c3nc2=O)cc1 [Compound 357] |  | − (a “−” indicates that the compound has an MIC value greater than 16 micrograms/ml) |
| N=C(N)NCCCNCc1ccc(-n2cc3cc(-c4cc(C5CC5CN)cc(C(F)(F)F)c4)[nH]c3nc2=O)cc1 (stereo not drawn) [Compound 110] | + (a “+” indicates that the compound has an MIC value of 16 micrograms/ml or less) |  |
| CCc1cc(CCCCN)cc(-c2cc3cn(-c4ccc(CNCCCNC(=N)N)cc4)c(=O)nc3[nH]2)c1F [Compound 135] | + (a “+” indicates that the compound has an MIC value of 16 micrograms/ml or less) |  |
| CCc1cc(CCCC(C)NC(=N)N)cc(-c2cc3cn(-c4ccc(CNCCCNC(=N)N)cc4)c(=O)nc3[nH]2)c1Cl (stereo not drawn) [Compound 284] | + (a “+” indicates that the compound has an MIC value of 16 micrograms/ml or less) |  |
| N=C(N)NCCCNCc1ccc(-n2cc3cc(-c4cc(CSCCN)cc(OC(F)(F)F)c4)[nH]c3nc2=O)cc1 [Compound 8] | + (a “+” indicates that the compound has an MIC value of 16 micrograms/ml or less) |  |
| C[C@H](N)CCCc1cc(-c2cc3cn(-c4ccc(CNCCCNC(=N)N)cc4)c(=O)nc3[nH]2)cc(C(C)(C)C)c1 [Compound 439] |  | + (a “+” indicates that the compound has an MIC value of 16 micrograms/ml or less) |
| N=C(N)NCCCNCc1ccc(-n2cc3cc(-c4cc(CCCCN)cc([S+]([O-])C(F)(F)F)c4Cl)[nH]c3nc2=O)cc1 (stereo not drawn) [Compound 220] | + (a “+” indicates that the compound has an MIC value of 16 micrograms/ml or less) |  |
| N=C(N)NCCCNCc1ccc(-n2cc3cc(-c4cc(C5CCC(CN)CC5)cc(Cl)c4F)[nH]c3nc2=O)cc1 (stereo not drawn) [Compound 450] |  | + (a “+” indicates that the compound has an MIC value of 16 micrograms/ml or less) |
| N=C(N)NCCCNCc1ccc(-n2cc3cc(-c4cc(CC(O)CCN)cc(OC(F)(F)F)c4)[nH]c3nc2=O)cc1 (stereo not drawn) [Compound 252] | + (a “+” indicates that the compound has an MIC value of 16 micrograms/ml or less) |  |
| N=C(N)NCCCNCc1ccc(-n2cc3cc(-c4cc(CCC5(CN)CC5)cc(F)c4Cl)[nH]c3nc2=O)cc1 [Compound 223] | + (a “+” indicates that the compound has an MIC value of 16 micrograms/ml or less) |  |
| CC(N)CCCc1cc(-c2cc3cn(-c4ccc(CNCCCCC(=N)N)cc4)c(=O)nc3[nH]2)cc(C(F)(F)F)c1 (stereo not drawn) [Compound 365] |  | − (a “−” indicates that the compound has an MIC value greater than 16 micrograms/ml) |
| COc1cc(CCCCN)cc(-c2cc3cn(-c4ccc(CNCCCNC(=N)N)cc4)c(=O)nc3[nH]2)c1 [Compound 14] | + (a “+” indicates that the compound has an MIC value of 16 micrograms/ml or less) |  |
| CNC(C)CCCc1cc(-c2cc3cn(-c4ccc(C(C)NCCCNC(=N)N)cc4)c(=O)nc3[nH]2)cc(C(F)(F)F)c1 (stereo not drawn) [Compound 290] | + (a “+” indicates that the compound has an MIC value of 16 micrograms/ml or less) |  |
| N=C(N)NCCCNCc1ccc(-c2c[nH]c(NC(=O)Nc3ccc(C4CC4)cc3OCCCN)nc2=O)cc1 [Compound 184] | + (a “+” indicates that the compound has an MIC value of 16 micrograms/ml or less) |  |
| CC(C)c1cc(CCC[C@H](C)N)cc(-c2cc3cn(-c4ccc(CNCCCNC(=N)N)cc4)c(=O)nc3[nH]2)c1Cl [Compound 261] | + (a “+” indicates that the compound has an MIC value of 16 micrograms/ml or less) |  |
| C[C@@H](CCCc1cc(-c2cc3cn(-c4ccc(CNCCCNC(=N)N)cc4)c(=O)nc3[nH]2)cc(C(F)(F)F)c1)N(C)C [Compound 309] | + (a “+” indicates that the compound has an MIC value of 16 micrograms/ml or less) |  |
| N=C(N)NCCCNCc1ccc(-n2cc3cc(-c4cc(CC[C@@H](O)CN)cc(OC(F)(F)F)c4)[nH]c3nc2=O)cc1 [Compound 238] | + (a “+” indicates that the compound has an MIC value of 16 micrograms/ml or less) |  |
| CC(C)(N)CCCc1cc(OC(F)(F)F)cc(-c2cc3cn(-c4ccc(CNCCCNC(=N)N)cc4)c(=O)nc3[nH]2)c1 [Compound 131] | + (a “+” indicates that the compound has an MIC value of 16 micrograms/ml or less) |  |

| Compound | E. coli ATCC25922 MIC [1] | E. coli ATCC25922 MIC [2] |
| --- | --- | --- |
| Cc1cc(CCCCN)cc(-c2cc3cn(-c4ccc(CNCCCNC(=N)N)cc4)c(=O)nc3[nH]2)c1 [Compound 9] | + (a “+” indicates that the compound has an MIC value of 16 micrograms/ml or less) |  |
| NCCCCc1cc(Cl)c(F)c(-c2cc3cn(-c4ccc(CNCCCN=C(N)N)cc4)c(=O)nc3[nH]2)c1 [Compound 91] | + (a “+” indicates that the compound has an MIC value of 16 micrograms/ml or less) |  |
| N=C(N)NCCCNCc1ccc(-n2cc3cc(-c4cc(CCC(O)CN)ccc4F)[nH]c3nc2=O)cc1 (stereo not drawn) [Compound 258] | + (a “+” indicates that the compound has an MIC value of 16 micrograms/ml or less) |  |
| N=C(N)NCCCNCc1ccc(-n2cc3cc(-c4cc(CCCCN)cc(OC(F)(F)F)c4F)[nH]c3nc2=O)cc1 [Compound 107] | + (a “+” indicates that the compound has an MIC value of 16 micrograms/ml or less) |  |
| CC(NCCCNC(=N)N)c1ccc(-n2cc3cc(-c4cc(OC(F)(F)F)cc(C5CCC(CN)O5)c4)[nH]c3nc2=O)cc1 (stereo not drawn) [Compound 436] |  | + (a “+” indicates that the compound has an MIC value of 16 micrograms/ml or less) |
| C[C@H](NCCCNC(=N)N)c1ccc(-n2cc3cc(-c4cc(C[C@H]5C[C@H](N)C5)cc(C(F)(F)F)c4)[nH]c3nc2=O)cc1 [Compound 396] |  | + (a “+” indicates that the compound has an MIC value of 16 micrograms/ml or less) |
| CCN=C(N)NCCCNC(C)c1ccc(-n2cc3cc(-c4cc(CCCC(C)N)cc(Cl)c4F)[nH]c3nc2=O)cc1 (stereo not drawn) [Compound 362] |  | + (a “+” indicates that the compound has an MIC value of 16 micrograms/ml or less) |
| N=C(N)NCCCNCc1ccc(-n2cc3cc(-c4cc(OC(F)(F)F)cc(C(F)CCCN)c4)[nH]c3nc2=O)cc1 (stereo not drawn) [Compound 58] | + (a “+” indicates that the compound has an MIC value of 16 micrograms/ml or less) |  |
| CN(CCCNC(=N)N)Cc1ccc(-n2cc3cc(-c4cc(CCCCN)cc(C(F)(F)F)c4)[nH]c3nc2=O)cc1 [Compound 338] |  | + (a “+” indicates that the compound has an MIC value of 16 micrograms/ml or less) |
| C[C@H](NCCCNC(=N)N)c1ccc(-n2cc3cc(-c4cc(CSC(C)(C)CN)cc(SC(F)(F)F)c4)[nH]c3nc2=O)cc1 [Compound 377] |  | + (a “+” indicates that the compound has an MIC value of 16 micrograms/ml or less) |
| C[S+]([O-])Cc1cc(CCCCN)cc(-c2cc3cn(-c4ccc(CNCCCNC(=N)N)cc4)c(=O)nc3[nH]2)c1 (stereo not drawn) [Compound 2] | + (a “+” indicates that the compound has an MIC value of 16 micrograms/ml or less) |  |
| CC(C)Cc1cc(CCC[C@H](C)N)cc(-c2cc3cn(-c4ccc(CNCCCNC(=N)N)cc4)c(=O)nc3[nH]2)c1F [Compound 431] |  | + (a “+” indicates that the compound has an MIC value of 16 micrograms/ml or less) |
| CC(CN)Cc1cc(-c2cc3cn(-c4ccc(CNCCCNC(=N)N)cc4)c(=O)nc3[nH]2)cc(C(F)(F)F)c1 (stereo not drawn) [Compound 242] | + (a “+” indicates that the compound has an MIC value of 16 micrograms/ml or less) |  |
| N=C(N)NCCCNCc1ccc(-n2cc3cc(-c4cc(Br)c(CC(O)CCN)c(OC(F)(F)F)c4)[nH]c3nc2=O)cc1 (stereo not drawn) [Compound 43] | + (a “+” indicates that the compound has an MIC value of 16 micrograms/ml or less) |  |
| COC(=O)NCCCCc1cc(-c2cc3cn(-c4ccc(CNCCCNC(=N)N)cc4)c(=O)nc3[nH]2)cc(OC(F)(F)F)c1OC [Compound 45] | + (a “+” indicates that the compound has an MIC value of 16 micrograms/ml or less) |  |
| N=C(N)NCCCNCc1ccc(-n2cc3cc(-c4cc(COCCN)ccc4F)[nH]c3nc2=O)cc1 [Compound 24] | + (a “+” indicates that the compound has an MIC value of 16 micrograms/ml or less) |  |
| C[C@H](NCCCNC(=N)N)c1ccc(-n2cc3cc(-c4cc(C[C@H]5C[C@@H](N)C5)cc(C(F)(F)F)c4)[nH]c3nc2=O)cc1 [Compound 395] |  | + (a “+” indicates that the compound has an MIC value of 16 micrograms/ml or less) |
| CC(N)CCCc1cc(OC(F)F)c(F)c(-c2cc3cn(-c4ccc(CNCCCNC(=N)N)cc4)c(=O)nc3[nH]2)c1 (stereo not drawn) [Compound 297] | + (a “+” indicates that the compound has an MIC value of 16 micrograms/ml or less) |  |
| C[C@H](NCCCNC(=N)N)c1ccc(-n2cc3cc(-c4cc(C[C@H]5C[C@H](CN)C5)cc(SC(F)(F)F)c4)[nH]c3nc2=O)cc1 [Compound 403] |  | + (a “+” indicates that the compound has an MIC value of 16 micrograms/ml or less) |
